In US6309882A, “Antisense inhibition of replication protein a p70 subunit” (ISIS Pharmaceuticals, Inc., priority 1999, dated 2001):

What was measured:
Format in all cases: cell-based, human
[1] = tested on: Mia Paca II cells; assay: Mia Paca II cell survival, Sulforhodamine B staining; settings: for % Cell Killing / % Cell Survival: Mia Paca II, SRB, 6 days
Procedure: Cells were transfected with matched, mismatched, or non-allele specific anti-RPA70 (ISIS 12790) oligonucleotides as described above. Following transfection, the cells were allowed to recover either three days (HeLa cells) or 6 days (Mia Paca II cells). The number of cells remaining attached to the tissue culture dish was quantified by Sulforhodamine B (SRB) staining (FluoReporter Colorimetric Cell Protein Assay Kit, Molecular probes).
However, at 400 nM, there was a statistically significant difference in survival with less survival seen in cells treated with the matched oligonucleotide,VAR 13085, than the mismatched oligonucleotide, ISIS 12781 (p=0.02). At 400 nM, there was a 4.6 fold difference in cell survival between matched and mismatched oligonucleotides. […] The IC50 for inhibition of Mia Paca II cell survival was similar to that for suppression of RPA70 mRNA for both VAR 13085 and ISIS 12790. The effect of antisense treatment on cell survival for both cell lines appears to be cytotoxic rather than cytostatic as the absolute number of cells decreases for both cell lines when treated with matched antisense oligonucleotides.

[2] = tested on: A549 cells; assay: Tumor cell survival, cell number by hemocytometer; settings: A549, 400 nM, 72 hours
Procedure: (§1) To determine the effects of ISIS 12790 on tumor cell survival, T24, A549, Mia Paca II, and SW480 cells were treated with either ISIS 12790 or ISIS 13706 (a 20-mer with identical nucleotide composition but containing 7 mismatches relative to the target) and surviving cells counted 72 hours later.
(§2) For experiments where cell number was measured directly by hemocytometer, cells were plated in six well dishes 24 hr prior to the experiment and transfected at approximately 50-70% confluency with various phosphorothioate oligonucleotides at 400 nM, as described above. Following a single transfection, the cells were allowed to recover 72 hours. After 72 hr the cells were washed, trypsinized, and cell number was determined by hemocytometer. For each experiment, treatments were performed in triplicate wells. The number of cells corresponding to each well was determined twice.
(§3) Statistical analysis of mRNA levels and cell survival data were performed using BMDP Statistical package, Version 7.0 (BMDP Statistical Software, Inc., Los Angeles, Calif.). Data were subjected to ANOVA and the results were expressed in terms of F-values, t-values, and significance. For cell survival data, analyses included repeated measurements with 3 between factors (drug, concentration, and position). For mRNA levels only the 3 between factors were considered. Global comparisons were performed with F-tests and pairwise comparisons with t-tests. In each case, since there was no interaction with position, results were pooled and analyzed with two between factors (drug and concentration). Treatment with ISIS 12790 was associated with decreased cell number in all four tumor cell lines (see Table 4). The decrease in cell number observed in T24 cells was 79%. The decrease observed in the other three cell lines was: A549, 98% decrease; Mia Paca II, 85% decrease; SW480, 81% decrease.

[3] = tested on: Mia Paca II cells; assay: Tumor cell survival, cell number by hemocytometer; settings: 400 nM, 72 hours
Procedure: as §1, §2, §3

[4] = tested on: T24 cells; assay: Tumor cell survival, cell number by hemocytometer; settings: T24, 400 nM, 72 hours
Procedure: as §1, §2, §3

[5] = tested on: SW480 cells; assay: Tumor cell survival, cell number by hemocytometer; settings: SW480, 400 nM, 72 hours
Procedure: as §1, §2, §3

ISIS 12790: phosphorothioate oligodeoxynucleotide TGGTCTGCAGTTAGGGTCAG, SEQ ID NO 15, 3'-UTR 2230-2249, non-allele specific (DNA, all phosphorothioate, methylation of C not given here)
effect on cell survival ([1]; Mia Paca II cells): dose-dependent decrease in the number of surviving cells | IC50 ([1]; Mia Paca II cells, read-out: IC50 for decrease in cell survival): < 100 nM | % Cell Killing ([1]; 50 nM): 39% | % Cell Survival ([1]; 50 nM): 61% | % Cell Killing ([1]; 100 nM): 86% | % Cell Survival ([1]; 100 nM): 14% | % Cell Killing ([1]; 200 nM): 94% | % Cell Survival ([1]; 200 nM): 6% | % Cell Killing ([1]; 400 nM): 88% | % Cell Survival ([1]; 400 nM): 12% | % Cell Killing [2]: 98% | % Cell Survival [2]: 2% | decrease in cell number [2]: 98% | decrease in cell number [3]: 85% | % Cell Killing [4]: 79% | % Cell Survival [4]: 21% | decrease in cell number [4]: 79% | % Cell Killing [5]: 81% | % Cell Survival [5]: 19% | decrease in cell number [5]: 81%
